Experimental data from patent US8900644B2, “Oral care compositions containing compounds from magnolia and hops extracts” (Colgate-Palmolive Company, priority 2004, dated 2014).

Tests used:
Experiment in all cases: in vitro test Minimal Inhibitory Concentration (MIC)
Assay type in all cases: cell-based
[1] = system: P. gingivitis
Source text: (§1) For example, the oral compositions of the present invention are bactericidal against representative oral bacteria, such as S. mutans, F. nucleatum, V. parvula, A. naeslundii, and P. gingivitis as measured by the in vitro test Minimal Inhibitory Concentration (MIC). The oral composition of the present invention is applied to the oral surfaces in the oral cavity, and promotes overall oral health, including preventing plaque formation, caries formation, calculus formation, halitosis, gingivitis, and periodontitis, for example. For example, in an embodiment of the present invention, where an oral care composition comprises an orally acceptable delivery carrier and a safe and effective amount of the combination of an extract of hops and an extract of magnolia, it has been observed that the antibacterial activity is highly efficacious against both gram-positive and gram-negative bacteria.
(§2) It should be noted that any plant from the Magnoliaceae family is suitable for the present invention and may be used in alternate embodiments. Preferably such that the extract comprises an antimicrobially effective concentration of a compound selected from the group consisting of magnolol, honokiol, tetrahydromagnolol, tetrahydrohonokiol, and mixtures thereof.

[2] = system: V. parvula
Source text: as §1, §2

[3] = system: A. naeslundii
Source text: as §1, §2

[4] = system: S. mutans
Source text: as §1, §2

[5] = system: F. nucleatum
Source text: as §1, §2

Measured: bactericidal properties in Minimal Inhibitory Concentration (MIC) test

C=CCc1ccc(O)c(-c2ccc(O)c(CC=C)c2)c1 [honokiol]
bactericidal: [1] | [2] | [3] | [4] | [5]

C=CCc1ccc(O)c(-c2cc(CC=C)ccc2O)c1 [magnolol]
bactericidal: [1] | [2] | [3] | [4] | [5]

CCCc1ccc(O)c(-c2ccc(O)c(CCC)c2)c1 [tetrahydrohonokiol]
bactericidal: [1] | [2] | [3] | [4] | [5]

CCCc1ccc(O)c(-c2cc(CCC)ccc2O)c1 [tetrahydromagnolol]
bactericidal: [1] | [2] | [3] | [4] | [5]
